Key:
[1] = biological target: T1, MET (Homo sapiens, UniProt P08581); assay: MET Mobility Shift Assay; details: biochemical assay IC50; 100 μM ATP, 60 minute kinase reaction
T1 construct: purchased Carna Biosciences 08-151
How it was run: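 Recombinant MET at 0.625 nM was pre-incubated 30 min at room temperature with 1.5 μM FLPeptide30 and 10 mM MgCl2 in HEPES buffer with DTT. The reaction was started with 100 μM ATP, ran 60 min, and was stopped with EDTA. Microfluidic mobility-shift % conversion gave IC50.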

[2] = biological target: T2, MET D1228N (Homo sapiens, UniProt P08581, D1228N); assay: MET D1228N Mobility Shift Assay; details: biochemical assay IC50; 100 μM ATP, 60 minute kinase reaction
T2 construct: purchased Signalchem M52-12IG
How it was run: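 Enzyme at 0.313 nM preincubated 30 min at room temperature with 1.5 μM FAM-labelled peptide and 10 mM MgCl2 in HEPES buffer with DTT; reaction started with 100 μM ATP, run 60 min, stopped with EDTA. Substrate/product separated by microfluidic mobility shift; IC50 from inhibition of % conversion.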

[3] = biological target: T3, Ba/F3-TPR-MET cells (Homo sapiens, UniProt P08581); assay: CellTiter-Glo Cell Viability Assay, Ba/F3-TPR-MET; assay type: cell-based; details: 72 hours
T3 construct: fused on or other part: P12270 (Nucleoprotein TPR)
How it was run: (§1)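 Ba/F3 cells carrying TPR-MET or TPR-MET-D1228N, 3000 per well, were exposed for 72 h at 37 °C to 9-point 3-fold compound dilutions at 0.1% DMSO. Viability was read as ATP by CellTiter-Glo 2.0 luminescence, and IC50 values came from curve fitting.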

[4] = biological target: T4, Ba/F3-TPR-MET-D1228N cells (Homo sapiens, UniProt P08581, D1228N, cells depend on it); assay: CellTiter-Glo Cell Viability Assay, Ba/F3-TPR-MET-D1228N; assay type: cell-based; details: 72 hours
T4 construct: fused on or other part: P12270 (Nucleoprotein TPR)
How it was run: as §1

T4 sequence (P08581 whole entry D1228N, the tested form may be a part): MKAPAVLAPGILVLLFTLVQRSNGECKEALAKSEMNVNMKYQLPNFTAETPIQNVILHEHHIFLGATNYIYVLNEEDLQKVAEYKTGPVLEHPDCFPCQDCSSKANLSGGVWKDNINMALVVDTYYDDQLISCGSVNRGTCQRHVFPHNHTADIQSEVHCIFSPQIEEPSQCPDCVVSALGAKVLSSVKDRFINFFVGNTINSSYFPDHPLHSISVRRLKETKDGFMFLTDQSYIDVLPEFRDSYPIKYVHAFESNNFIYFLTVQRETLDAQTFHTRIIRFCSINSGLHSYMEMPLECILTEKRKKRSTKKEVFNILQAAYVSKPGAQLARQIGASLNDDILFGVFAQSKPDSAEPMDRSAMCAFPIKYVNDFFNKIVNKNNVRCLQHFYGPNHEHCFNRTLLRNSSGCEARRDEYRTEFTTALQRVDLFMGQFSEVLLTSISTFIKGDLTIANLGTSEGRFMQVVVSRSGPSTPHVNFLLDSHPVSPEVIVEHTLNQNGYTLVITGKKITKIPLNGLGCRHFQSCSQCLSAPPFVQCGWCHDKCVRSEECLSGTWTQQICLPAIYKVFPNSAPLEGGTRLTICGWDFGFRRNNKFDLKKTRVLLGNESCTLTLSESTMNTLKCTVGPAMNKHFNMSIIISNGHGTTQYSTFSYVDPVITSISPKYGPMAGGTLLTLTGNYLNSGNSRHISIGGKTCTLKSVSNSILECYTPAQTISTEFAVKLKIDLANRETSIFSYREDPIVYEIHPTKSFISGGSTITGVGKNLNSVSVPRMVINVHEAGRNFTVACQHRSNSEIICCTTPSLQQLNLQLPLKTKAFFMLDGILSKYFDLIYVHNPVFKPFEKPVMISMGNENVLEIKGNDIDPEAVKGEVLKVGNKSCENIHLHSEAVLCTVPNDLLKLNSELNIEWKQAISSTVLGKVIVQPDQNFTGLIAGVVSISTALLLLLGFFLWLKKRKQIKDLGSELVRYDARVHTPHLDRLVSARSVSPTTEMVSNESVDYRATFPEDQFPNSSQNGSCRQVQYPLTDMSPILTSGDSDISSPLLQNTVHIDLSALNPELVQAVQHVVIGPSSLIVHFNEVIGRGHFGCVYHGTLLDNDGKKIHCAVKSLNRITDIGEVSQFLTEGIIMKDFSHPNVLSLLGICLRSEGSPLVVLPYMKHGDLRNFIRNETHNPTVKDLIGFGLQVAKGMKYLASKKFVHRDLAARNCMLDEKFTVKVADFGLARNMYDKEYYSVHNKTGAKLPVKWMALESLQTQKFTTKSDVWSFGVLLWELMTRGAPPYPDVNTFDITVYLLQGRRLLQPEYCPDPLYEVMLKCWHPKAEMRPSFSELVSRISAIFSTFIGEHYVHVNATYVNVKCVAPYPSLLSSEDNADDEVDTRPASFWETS
T1 sequence (P08581 25-1390): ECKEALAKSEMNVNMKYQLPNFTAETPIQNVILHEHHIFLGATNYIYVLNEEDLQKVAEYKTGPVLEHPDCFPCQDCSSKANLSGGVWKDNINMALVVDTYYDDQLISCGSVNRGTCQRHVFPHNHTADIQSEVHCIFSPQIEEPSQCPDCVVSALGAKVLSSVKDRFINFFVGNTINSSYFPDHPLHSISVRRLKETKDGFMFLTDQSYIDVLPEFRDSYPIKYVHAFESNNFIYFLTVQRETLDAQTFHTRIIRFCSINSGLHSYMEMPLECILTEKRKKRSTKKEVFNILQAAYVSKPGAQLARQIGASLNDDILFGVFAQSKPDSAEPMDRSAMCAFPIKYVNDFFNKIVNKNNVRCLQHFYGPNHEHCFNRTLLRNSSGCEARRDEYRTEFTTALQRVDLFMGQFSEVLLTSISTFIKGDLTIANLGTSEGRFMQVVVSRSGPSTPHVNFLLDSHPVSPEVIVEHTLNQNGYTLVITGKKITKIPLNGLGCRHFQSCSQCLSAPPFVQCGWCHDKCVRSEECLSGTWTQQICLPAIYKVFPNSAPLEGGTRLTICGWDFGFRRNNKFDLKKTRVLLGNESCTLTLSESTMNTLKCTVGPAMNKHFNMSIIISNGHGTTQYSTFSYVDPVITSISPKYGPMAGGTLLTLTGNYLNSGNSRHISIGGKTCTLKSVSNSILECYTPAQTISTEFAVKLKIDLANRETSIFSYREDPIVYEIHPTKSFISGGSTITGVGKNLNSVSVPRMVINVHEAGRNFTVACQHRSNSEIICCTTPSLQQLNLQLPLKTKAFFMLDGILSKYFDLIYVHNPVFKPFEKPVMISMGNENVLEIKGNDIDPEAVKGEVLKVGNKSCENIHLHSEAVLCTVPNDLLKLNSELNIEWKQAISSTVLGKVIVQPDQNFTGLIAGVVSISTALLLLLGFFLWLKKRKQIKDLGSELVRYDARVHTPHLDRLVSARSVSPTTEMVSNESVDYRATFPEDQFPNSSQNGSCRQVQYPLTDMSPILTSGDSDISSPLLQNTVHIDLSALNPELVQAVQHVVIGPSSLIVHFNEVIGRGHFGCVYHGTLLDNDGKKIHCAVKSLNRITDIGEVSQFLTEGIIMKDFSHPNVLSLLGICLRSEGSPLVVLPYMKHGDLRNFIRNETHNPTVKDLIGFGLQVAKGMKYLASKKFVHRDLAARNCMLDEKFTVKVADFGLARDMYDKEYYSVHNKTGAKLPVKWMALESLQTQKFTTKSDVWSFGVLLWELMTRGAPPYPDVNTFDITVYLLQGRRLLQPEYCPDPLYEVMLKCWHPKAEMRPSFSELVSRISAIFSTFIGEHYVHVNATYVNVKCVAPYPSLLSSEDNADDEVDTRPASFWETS
T3 sequence (P08581 whole entry, change not shown, the tested form may be a part): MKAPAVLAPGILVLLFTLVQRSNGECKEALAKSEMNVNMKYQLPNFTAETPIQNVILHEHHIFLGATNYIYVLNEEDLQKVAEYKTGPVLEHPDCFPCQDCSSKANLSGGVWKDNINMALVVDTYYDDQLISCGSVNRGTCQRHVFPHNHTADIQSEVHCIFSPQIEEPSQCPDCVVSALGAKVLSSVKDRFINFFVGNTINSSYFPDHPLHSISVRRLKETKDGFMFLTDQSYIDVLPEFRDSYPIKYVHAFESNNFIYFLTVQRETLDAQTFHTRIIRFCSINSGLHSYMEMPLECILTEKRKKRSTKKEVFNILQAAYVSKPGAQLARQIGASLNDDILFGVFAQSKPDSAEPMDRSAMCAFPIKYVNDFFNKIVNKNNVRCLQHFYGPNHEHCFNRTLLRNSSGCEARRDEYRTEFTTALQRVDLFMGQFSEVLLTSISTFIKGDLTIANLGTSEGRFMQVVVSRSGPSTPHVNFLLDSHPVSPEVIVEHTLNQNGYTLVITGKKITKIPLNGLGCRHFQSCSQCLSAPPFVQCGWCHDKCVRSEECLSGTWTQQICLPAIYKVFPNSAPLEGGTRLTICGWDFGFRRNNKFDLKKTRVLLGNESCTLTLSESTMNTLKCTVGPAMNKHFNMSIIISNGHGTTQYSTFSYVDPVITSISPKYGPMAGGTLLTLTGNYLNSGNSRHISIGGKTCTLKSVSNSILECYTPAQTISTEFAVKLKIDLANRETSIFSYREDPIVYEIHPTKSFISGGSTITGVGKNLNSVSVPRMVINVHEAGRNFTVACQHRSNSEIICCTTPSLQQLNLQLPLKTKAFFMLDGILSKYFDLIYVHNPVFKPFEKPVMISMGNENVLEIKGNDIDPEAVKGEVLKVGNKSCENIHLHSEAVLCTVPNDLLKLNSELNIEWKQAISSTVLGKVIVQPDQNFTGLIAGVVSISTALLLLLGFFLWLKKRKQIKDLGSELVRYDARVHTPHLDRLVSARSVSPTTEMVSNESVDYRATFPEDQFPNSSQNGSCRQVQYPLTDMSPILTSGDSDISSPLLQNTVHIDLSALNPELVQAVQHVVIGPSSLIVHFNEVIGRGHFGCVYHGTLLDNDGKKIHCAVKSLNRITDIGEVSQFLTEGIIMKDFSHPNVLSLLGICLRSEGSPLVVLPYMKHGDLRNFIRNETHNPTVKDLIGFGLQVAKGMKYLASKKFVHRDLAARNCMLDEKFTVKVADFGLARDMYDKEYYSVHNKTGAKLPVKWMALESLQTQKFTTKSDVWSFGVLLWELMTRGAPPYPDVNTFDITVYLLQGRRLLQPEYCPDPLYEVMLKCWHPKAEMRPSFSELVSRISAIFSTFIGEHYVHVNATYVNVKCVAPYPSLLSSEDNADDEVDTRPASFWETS

| SMILES | IC50 [1] | IC50 [2] | EC50 [3] | EC50 [4] |
| --- | --- | --- | --- | --- |
| COCCOc1cc2nccc(Oc3c(F)cc(NC(=O)c4cnccc4OC)cc3F)c2nc1OC [Example 137, N-(3,5-difluoro-4-((6-methoxy-7-(2-methoxyethoxy)-1,5-naphthyridin-4-yl)oxy)phenyl)-4-methoxypyridine-3-carboxamide] | ≤ 100 nM | ≤ 100 nM | ≤ 100 nM | ≤ 100 nM |
| CNCCOc1cc2nccc(Oc3c(F)cc(NC(=O)c4cncnc4OC4CC4)cc3F)c2cc1OC [Example 76, 4-cyclopropoxy-N-[3,5-difluoro-4-({6-methoxy-7-[2-(methylamino)ethoxy]quinolin-4-yl}oxy)phenyl]pyrimidine-5-carboxamide] | ≤ 100 nM | ≤ 100 nM | 100 to 1000 nM | 100 to 1000 nM |
| CNCCOc1cc2ncnc(Oc3c(F)cc(NC(=O)c4c(OC)ccnc4F)cc3F)c2cc1OC [Example 7, N-(3,5-difluoro-4-((6-methoxy-7-(2-(methylamino)ethoxy)quinazolin-4-yl)oxy)phenyl)-2-fluoro-4-methoxypyridine-3-carboxamide] | ≤ 100 nM | ≤ 100 nM | 1000 to 10000 nM | 100 to 1000 nM |
| COc1cc2nccc(Oc3c(F)cc(NC(=O)c4cnccc4OC)cc3F)c2cn1 [Example 36, N-{3,5-difluoro-4-[(7-methoxy-1,6-naphthyridin-4-yl)oxy]phenyl}-4-methoxypyridine-3-carboxamide] | ≤ 100 nM | ≤ 100 nM | 100 to 1000 nM | 100 to 1000 nM |
| COc1cc2c(Oc3c(F)cc(NC(=O)c4cnccc4OC4CC4)cc3F)ccnc2cc1OC1CNC1 [Example 74, N-(4-{[7-(azetidin-3-yloxy)-6-methoxyquinolin-4-yl]oxy}-3,5-difluorophenyl)-4-cyclopropoxypyridine-3-carboxamide] | ≤ 100 nM | ≤ 100 nM | 100 to 1000 nM | 100 to 1000 nM |
| COc1cc2nccc(Oc3c(F)cc(NC(=O)c4cnccc4OC)cc3F)c2cc1OC[C@@H](C)O [Example 124, (R)-N-(3,5-difluoro-4-{[6-(2-hydroxypropoxy)-7-methoxyquinolin-4-yl]oxy}phenyl)-4-methoxypyridine-3-carboxamide] | ≤ 100 nM | ≤ 100 nM | ≤ 100 nM | ≤ 100 nM |
| COC[C@H](C)Oc1nc2c(Oc3c(F)cc(NC(=O)c4cnccc4OC)cc3F)ccnc2cc1OC [Example 146, (S)-N-(3,5-difluoro-4-((7-methoxy-6-((1-methoxypropan-2-yl)oxy)-1,5-naphthyridin-4-yl)oxy)phenyl)-4-methoxynicotinamide] | ≤ 100 nM | ≤ 100 nM | ≤ 100 nM | ≤ 100 nM |
| COc1cc2nccc(Oc3c(F)cc(NC(=O)c4cnccc4OC)cc3F)c2cc1OCCO [Example 122, N-(3,5-difluoro-4-{[6-(2-hydroxyethoxy)-7-methoxyquinolin-4-yl]oxy}phenyl)-4-methoxypyridine-3-carboxamide] | ≤ 100 nM | ≤ 100 nM | ≤ 100 nM | ≤ 100 nM |
| COc1cc2nccc(Oc3c(F)cc(NC(=O)c4c(OC5CC5)ccnc4F)cc3F)c2nc1OC [Example 144, 4-cyclopropoxy-N-(4-((6,7-dimethoxy-1,5-naphthyridin-4-yl)oxy)-3,5-difluorophenyl)-2-fluoropyridine-3-carboxamide] | ≤ 100 nM | ≤ 100 nM | ≤ 100 nM | ≤ 100 nM |
| COc1cc2c(Oc3c(F)cc(NC(=O)c4cnccc4OC4CC4)cc3F)ccnc2cc1OC[C@@H](C)O [Example 99, 4-cyclopropoxy-N-[3,5-difluoro-4-({7-[(2R)-2-hydroxypropoxy]-6-methoxyquinolin-4-yl}oxy)phenyl]pyridine-3-carboxamide] | ≤ 100 nM | ≤ 100 nM | ≤ 100 nM | ≤ 100 nM |
| CNCCOc1cc2nccc(Oc3c(F)cc(NC(=O)c4cnccc4OC[C@@H](C)F)cc3F)c2cc1OC [Example 61, N-[3,5-difluoro-4-({6-methoxy-7-[2-(methylamino)ethoxy]quinolin-4-yl}oxy)phenyl]-4-[(2R)-2-fluoropropoxy]pyridine-3-carboxamide] | ≤ 100 nM | ≤ 100 nM | ≤ 100 nM | ≤ 100 nM |
| COc1cc2c(Oc3cc(F)c(NC(=O)c4cnccc4OC)cc3F)ccnc2cc1OCCCN1CCOCC1 [Example 27, N-[2,5-difluoro-4-({6-methoxy-7-[3-(morpholin-4-yl)propoxy]quinolin-4-yl}oxy)phenyl]-4-methoxypyridine-3-carboxamide] | ≤ 100 nM | ≤ 100 nM | 100 to 1000 nM | 100 to 1000 nM |
| CNCCOc1cc2nccc(Oc3c(F)cc(NC(=O)c4cnccc4OC)cc3F)c2cc1OC [Example 1, N-(3,5-difluoro-4-((6-methoxy-7-(2-(methylamino)ethoxy)quinolin-4-yl)oxy)phenyl)-4-methoxypyridine-3-carboxamide] | ≤ 100 nM | ≤ 100 nM | ≤ 100 nM | ≤ 100 nM |
| COc1cc2nccc(Oc3c(F)cc(NC(=O)c4cnccc4OC4CC4)cc3F)c2cn1 [Example 96, 4-cyclopropoxy-N-{3,5-difluoro-4-[(7-methoxy-1,6-naphthyridin-4-yl)oxy]phenyl}pyridine-3-carboxamide] | ≤ 100 nM | ≤ 100 nM | 100 to 1000 nM | 100 to 1000 nM |
| COc1ccncc1C(=O)Nc1cc(F)c(Oc2ccnc3cc(OC)c(OC4(CO)CC4)nc23)c(F)c1 [Example 147, N-(3,5-difluoro-4-((6-(1-(hydroxymethyl)cyclopropoxy)-7-methoxy-1,5-naphthyridin-4-yl)oxy)phenyl)-4-methoxynicotinamide] | ≤ 100 nM | ≤ 100 nM | ≤ 100 nM | ≤ 100 nM |
| CNCCOc1cc2nccc(Oc3c(F)cc(NC(=O)c4cnccc4OC[C@H](C)F)cc3F)c2cc1OC [Example 62, N-[3,5-difluoro-4-({6-methoxy-7-[2-(methylamino)ethoxy]quinolin-4-yl}oxy)phenyl]-4-[(2S)-2-fluoropropoxy]pyridine-3-carboxamide] | ≤ 100 nM | ≤ 100 nM | ≤ 100 nM | ≤ 100 nM |
| CNCCCOc1cc2nccc(Oc3c(F)cc(NC(=O)c4cnccc4OC4COC4)cc3F)c2cc1OC [Example 86, N-(3,5-difluoro-4-((6-methoxy-7-(3-(methylamino)propoxy)quinolin-4-yl)oxy)phenyl)-4-(oxetan-3-yloxy)pyridine-3-carboxamide] | ≤ 100 nM | ≤ 100 nM | 100 to 1000 nM | 100 to 1000 nM |
| CNCCOc1cc2nccc(Oc3c(F)cc(NC(=O)c4cnc(F)cc4OC)cc3F)c2cc1OC [Example 44, N-(3,5-difluoro-4-((6-methoxy-7-(2-(methylamino)ethoxy)quinolin-4-yl)oxy)phenyl)-6-fluoro-4-methoxypyridine-3-carboxamide] | ≤ 100 nM | ≤ 100 nM | 100 to 1000 nM | 100 to 1000 nM |
| CNCCOc1cc2nccc(Oc3c(F)cc(NC(=O)c4cnccc4OCCO)cc3F)c2cc1OC [Example 63, N-[3,5-difluoro-4-({6-methoxy-7-[2-(methylamino)ethoxy]quinolin-4-yl}oxy)phenyl]-4-(2-hydroxyethoxy)pyridine-3-carboxamide] | ≤ 100 nM | ≤ 100 nM | 100 to 1000 nM | 100 to 1000 nM |
| CNCCOc1ccc2c(Oc3c(F)cc(NC(=O)c4c(OC)ccnc4F)cc3F)ccnc2c1 [Example 9, N-(3,5-difluoro-4-((7-(2-(methylamino)ethoxy)quinolin-4-yl)oxy)phenyl)-2-fluoro-4-methoxypyridine-3-carboxamide] | ≤ 100 nM | ≤ 100 nM | 100 to 1000 nM | ≤ 100 nM |
| CNCCOc1cc2nccc(Oc3c(F)cc(NC(=O)c4ncccc4OC4CC4)cc3F)c2cc1OC [Example 77, 3-cyclopropoxy-N-[3,5-difluoro-4-({6-methoxy-7-[2-(methylamino)ethoxy]quinolin-4-yl}oxy)phenyl]pyridine-2-carboxamide] | ≤ 100 nM | ≤ 100 nM | ≤ 100 nM | ≤ 100 nM |
| CNCCOc1cc2nccc(Oc3c(F)cc(NC(=O)c4cnccc4O[C@@H]4CCOC4)cc3F)c2cc1OC [Example 70, N-[3,5-difluoro-4-({6-methoxy-7-[2-(methylamino)ethoxy]quinolin-4-yl}oxy)phenyl]-4-[(3R)-oxolan-3-yloxy]pyridine-3-carboxamide] | ≤ 100 nM | ≤ 100 nM | 100 to 1000 nM | 100 to 1000 nM |
| CNCCCOc1cc2nccc(Oc3ccc(NC(=O)c4cnccc4OC)c(F)c3F)c2cc1OC [Example 18, N-[2,3-difluoro-4-({6-methoxy-7-[3-(methylamino)propoxy]quinolin-4-yl}oxy)phenyl]-4-methoxypyridine-3-carboxamide] | ≤ 100 nM | ≤ 100 nM | 100 to 1000 nM | ≤ 100 nM |

Source: patent publication US11753395B2 (Kinnate Biopharma Inc., priority 2021, dated 2023)
